What all share (format): cell-based
Holding throughout (conditions): alone

One assay has as its system Cordana musae. In words: in vitro-Test with Cordana musae.
The test system of another assay is Botrytis cinerea. In words: in vitro-Test with Botrytis cinerea.
The subject of a further assay is Alternaria alternata. In words: in vitro-Test with Alternaria alternata.
In another assay the test system is Colletotrichum coccodes. Put plainly: in vitro-Test with Colletotrichum coccodes.
For a further assay, the system named is Diaporthe citri. In words: in vitro-Test with Diaporthe citri.
For another assay, the system named is Fusarium culmorum. In words: in vitro-Test with Fusarium culmorum. As for the experimental part: Wells of 96-well microtiter plates are filled with 10 μl of a preparation of test compound or compound combination in methanol+emulsifier alkylaryl-polyglycol-ether. Thereafter, the solvent is evaporated in a hood. At the next step, into each well 100 μl of liquid potato dextrose medium is given, that has been amended with an appropriate concentration of spores or mycelium suspension of the test fungus.
With the aid of a photometer the extinction in all wells is measured at the wavelength of 620 nm.
The microtiter plates are incubated at 20° C. and 85% relative humidity. The inhibition of growth is determined again photometrically 3-5 days after the application. Efficacy is calculated in relation to the untreated control, 0% efficacy means fungal growth as high as in untreated control while 100% efficacy means no fungal growth is measured.

Each structure is given as a SMILES string.

As to `COC(=O)C(O)(Cn1cncn1)c1ccc(Oc2ccc(Cl)cc2)cc1Cl` (centres unmarked) [(I-1), Methyl 2-[2-chloro-4-(4-chlorophenoxy)phenyl]-2-hydroxy-3-(1,2,4-triazol-1-yl)propanoate], the Efficacy % in the assay on Cordana musae (0.02 ppm) came out at 14%; in the assay with Cordana musae (0.5 ppm), 54%; with Cordana musae (2.5 ppm), 97%; with Botrytis cinerea (0.02 ppm) it was 1%; in the assay on Botrytis cinerea (0.1 ppm) it was 0%; with Alternaria alternata (0.02 ppm), 3%. The Efficacy % in the assay on Alternaria alternata (0.1 ppm) turned out to be 0%; in the assay on Alternaria alternata (0.5 ppm), 18%; in the assay on Colletotrichum coccodes (0.02 ppm), 0%; with Colletotrichum coccodes (0.1 ppm), 0%; with Colletotrichum coccodes (2.5 ppm) it was 91%; with Diaporthe citri (0.02 ppm), 0%. Further, the Efficacy % with Diaporthe citri (0.1 ppm) is on record as 0%; in the assay on Diaporthe citri (2.5 ppm) it was 100%; in the assay with Fusarium culmorum (2.5 ppm) it was 25%.

As to `CCC(=O)Oc1c(OC)ccnc1C(=O)N[C@@H](C)C(=O)O[C@@H](C)[C@@H](C)c1ccccc1C` [(3.017) Metarylpicoxamid, metarylpicoxamid, reference compound], the Efficacy % in the assay on Cordana musae (0.08 ppm) is given as 44%; with Botrytis cinerea (0.8 ppm) it was 0%; with Botrytis cinerea (10 ppm), 20%; in the assay on Alternaria alternata (10 ppm), 50%; in the assay on Colletotrichum coccodes (0.08 ppm), 19%; in the assay with Colletotrichum coccodes (0.4 ppm) it was 26%. In addition, the Efficacy % with Diaporthe citri (2 ppm) came to 89%; with Diaporthe citri (10 ppm) it was 89%; in the assay on Fusarium culmorum (0.08 ppm), 10%; in the assay on Fusarium culmorum (2 ppm), 0%; in the assay with Fusarium culmorum (10 ppm), 4%.

The values above are taken from US20240365785A1, “ACTIVE COMPOUND COMBINATIONS AND FUNGICIDE COMPOSITIONS COMPRISING THOSE” (Bayer Aktiengesellschaft, priority 2021, published 2024).
